# Laboratory results taken from patent US6300499A, “α1-adrenergic receptor antagonists” (Societe de Conseils de Recherches et d'Applications …, priority 1998, dated 2001).
# Columns and labels:
# [1] = molecular target: α1-adrenergic receptor; assay: Test of the bond to the α1-adrenergic receptor (inhibition of [3H]prazosin bond to rat cerebral cortex); format: binding, rat (male Sprague Dawley); conditions: [3H]prazosin 0.2 nM, rat cerebral cortex membranes, 30 min, 25° C., pH 7.7
# Experimental: The cerebral cortices of male Sprague Dawley rats are homogenized at 4° C. in Tris-HCl 50 mM pH=7.7 and centrifuged at 50,000 g for 30 minutes at 4° C. The pellets are again suspended in the same buffer and centrifuged again at 50,000 g for 30 minutes at 4° C.
# The filters are rinsed three times with the same buffer at 0-4° C. and their radioactivity is tested by liquid scintillation spectrometry.
# The specific bonds are obtained by subtracting the non-specific bonds (determined in the presence of 10 μM of phentolamine (Sigma Chemical Co. St. Louis Mo.)) from the total bonds. The data relative to the bonds is analyzed by computer assisted iterative non-linear regression analysis, using the Ligand program (Munson, P. J., Rodbard, D. Anal. Biochem. 107:220 (1980)).
# [2] = tested on: prostatic urethrae; assay: Urethra Contraction Test (inhibition of phenylephrine contraction of prostatic urethra); parameters: species or system rabbit (male New Zealand); conditions: inhibition of contraction of rabbit prostatic urethra, agonist phenylephrine, compound 30 min before
# Experimental: The urethrae are removed from male New Zealand rabibits, and cleaned of the surrounding connective tissues. Bands of prostatic urethrae (3 mm wide, 10-15 mm long) are suspended (1 g tension) in organ baths containing 10 ml of physiological solution (pH 7.4) at 37° C. under an atmosphere of 95% O2 /5% CO2; NaCl (118 mM); KCl (4.7 mM); CaCl2 (2.5 mM); KH2 PO4 (1.2 mM); MgSO4 (1.2 mM); NaHCO3 (25 mM); glucose (11 mM). The contractile responses are measured using force displacement transducers coupled to a Gould 8000S polygraph. A one hour period of equilibration or equalization is provided before the experiment. After equalization, the preparations are sensitized by a submaximal concentration of phenylephrine. Forty five minutes after the sensitization, a concentration-effect curve for the phenylephrine is established. In order to determine the effect of the test compounds, different preparations originating from the same animal are used in parallel. One preparation serves as a control whilst the others receive a concentration of a test compound introduced into the bath 30 minutes before the phenylephrine (Auguet, M. et al. European J. Pharmacol. 217:153 (1995)).
# The dissociation constants (Kb) of the test compounds are determined using the following equation: Kb =[B]/(dose ratio--1); in which [B] is the concentration of test compound and (dose ratio) is the EC50 of phenylephrine in the presence of the test compound divided by the EC50 of the control preparation. These resultats are then expressed as the negative logarithm of Kb. The values of the EC50 are calculated from the maximum contractile response to the phenylephrine by computer analysis using a linear regression over the average tension values. The maximum contractile response of each preparation which was subjected to the test compound is determined by comparing the response provoked by the application of the sensitizing concentration of phenylephrine with the response provoked in the control preparation (which has not received the test compounds).
SMILES,Ki [1] [nM],-log Kb [2]
"Cc1ccc(C)c(N2CCN(CCCNC(=O)C(C)(O)c3ccccc3)CC2)c1 (racemic) [Compound 22, (±)-N-[3-{4-(2,5-dimethylphenyl)-1-piperazinyl}-propyl]-α-hydroxy-α-methyl-benzeneacetamide]",25,8.3
"CCC(O)(C(=O)NCCCN1CCN(c2cc(C)ccc2C)CC1)c1ccccc1 (racemic) [Compound 27, (±)-N-[3-{4-(2,5-dimethylphenyl)-1-piperazinyl}-propyl]-2-hydroxy-2-phenyl-butyramide]",31,7.6
"Cc1ccc(C)c(N2CCN(CCCNC(=O)C(C)c3ccccc3)CC2)c1 (racemic) [Compound 38, (±)-N-[3-{4-(2,5-dimethylphenyl)-1-piperazinyl}-propyl]-α-methyl-benzeneacetamide]",30,7.5
"Cc1ccc(C)c(N2CCN(CCCNC(=O)C(CO)c3ccccc3)CC2)c1 (racemic) [Compound 39, (±)-N-[3-{4-(2,5-dimethylphenyl)-1-piperazinyl}-propyl]-α-hydroxymethyl-benzeneacetamide]",27,7.3
"Cc1ccc(C)c(N2CCN(CCCNC(=O)C(C)(O)c3cccc4ccccc34)CC2)c1 (racemic) [Compound 42, (±)-N-[3-{4-(2,5dimethylphenyl)-1-piperazinyl}-propyl]-α-hydroxy-α-methyl-1-naphthaleneacetamide]",22,7.68
"Cc1ccc(C)c(N2CCN(CCCNC(=O)C(C(=O)NCc3ccccc3)c3ccccc3)CC2)c1 (racemic) [Compound 47, (±)-N-[3-{4-(2,5-dimethylphenyl)-1-piperazinyl}-propyl]-α-benzylaminocarbonyl-benzeneacetamide]",14,7.07
"Cc1ccc(S(=O)(=O)NC(C(=O)NCCCN2CCN(c3cc(C)ccc3C)CC2)c2ccccc2)cc1 (racemic) [Compound 48, (±)-N-[3-{4-(2,5-dimethylphenyl)-1piperazinyl}-propyl]-α-(4-methylphenyl)-sulphonylamino-benzeneacetamide]",29,7.02
"Cc1ccc(C)c(N2CCN(CCCNC(=O)C(C)(C(=O)NCc3ccccc3)c3ccccc3)CC2)c1 (racemic) [Compound 50, (±)-N-[3-{4-(2,5-dimethylphenyl)-1-piperazinyl}-propyl]-α-benzylaminocarbonyl-α-methyl-benzeneacetamide]",50,6.92
"Cc1ccccc1N1CCN(CCCNC(=O)C(O)(c2ccccc2)c2ccccc2)CC1 [Compound 2, α-hydroxy-N-[3-{4-(2-methylphenyl)-1-piperazinyl}-propyl]-α-phenyl-benzeneacetamide]",30,8
"Cc1ccc(C)c(N2CCN(CCCNC(=O)C(O)(c3ccccc3)c3ccccc3)CC2)c1 [Compound 7, N-[3-{4-(2. 5-dimethylphenyl)-1-piperazinyl}-propyl]-α-hydroxy-α-phenyl-benzeneacetamide]",30,8.1
"CCOc1ccccc1N1CCN(CCCNC(=O)C(O)(c2ccccc2)c2ccccc2)CC1 [Compound 8, N-[3-{4-(2-ethoxyphenyl)-1-piperazinyl}-propyl]-α-hydroxy-α-phenyl-benzeneacetamide]",16,8.2
"O=C(NCCCN1CCN(c2ccccc2Cl)CC1)C(O)(c1ccccc1)c1ccccc1 [Compound 9, N-[3-{4-(2-chlorophenyl)-1-piperazinyl}-propyl]-α-hydroxy-α-phenyl-benzeneacetamide]",28,8.1
"N#Cc1ccccc1N1CCN(CCCNC(=O)C(O)(c2ccccc2)c2ccccc2)CC1 [Compound 10, N-[3-{4-(2-cyanophenyl)-1-piperazinyl}-propyl]-α-hydroxy-α-phenyl-benzeneacetamide]",27,8.2
"COC(C(=O)NCCCN1CCN(c2cc(C)ccc2C)CC1)(c1ccccc1)c1ccccc1 [Compound 11, N-[3-{4-(2,5-dimethylphenyl)-1-piperazinyl}-propyl]-α-methoxy-α-phenyl-benzeneacetamide]",38,6.9
"COc1ccccc1N1CCN(CCCNC(=O)C(c2ccccc2)c2ccccc2)CC1 [Compound 13, N-[3-{4-(2-methoxyphenyl)-1-piperazinyl}-propyl]-α-phenyl-benzeneacetamide]",30,8.2
"COc1ccccc1N1CCN(CCCNC(=O)C(O)(c2ccccc2)c2ccccc2)CC1 [Compound 14, α-hydroxy-N-[3-{4-(2-methoxyphenyl)-1-piperazinyl}-propyl]-α-phenyl-benzeneacetamide]",27,7.8
"COc1ccccc1N1CCN(CCCNC(=O)C2c3ccccc3Oc3ccccc32)CC1 [Compound 15, N-[3-{4-(2-methoxyphenyl)-1-piperazinyl}-propyl]-9H-xanthene-9-carboxamide]",27,7.9
"COc1ccccc1N1CCN(CCCNC(=O)C2(O)c3ccccc3-c3ccccc32)CC1 [Compound 16, 9-hydroxy-N-[3-{4-(2-methoxyphenyl)-1-piperazinyl}-propyl]-9H-fluorene-9-carboxamide]",41,7.8
"COc1ccccc1N1CCN(CCCNC(=O)C(O)(c2ccccc2Cl)c2ccccc2Cl)CC1 [Compound 17, 2-chloro-α-(2-chlorophenyl)-α-hydroxy-N-[3-{4-(2-methoxyphenyl)-1-piperazinyl}-propyl]-α-phenyl-benzeneacetamide]",54,7.7
"Cc1ccc(C)c(N2CCN(CCCNC(=O)C(c3ccccc3)c3ccccc3)CC2)c1 [Compound 20, N-[3-{4-(2,5-dimethylphenyl)-1-piperazinyl}-propyl]-α-phenyl-benzeneacetamide]",27,7.5
"COc1ccc(C(O)(C(=O)NCCCN2CCN(c3cc(C)ccc3C)CC2)c2ccc(OC)cc2)cc1 [Compound 25, N-[3-{4-(2,5-dimethylphenyl)-1-piperazinyl}-propyl]-α-hydroxy-4-methoxy-α-(4-methoxyphenyl)-benzeneacetamide]",29,7.6
"Cc1ccc(C)c(N2CCN(CCCNC(=O)[C@](C)(O)c3ccccc3)CC2)c1 [Compound 46, R-(-)-N-[3-{4-(2,5-dimethylphenyl)-1-piperazinyl}-propyl]-α-hydroxy-α-methyl-benzeneacetamide]",48,7.5
